Test results taken from patent US10202391B2, “Chemical compounds” (AstraZeneca AB, priority 2015, dated 2019).

Experiments:
[1] = test system: phospho-p90RSK in A375 cell line; assay: A375 Phospho-p90RSK Cellular Assay; assay type: cell-based, human; settings: A375 cells, 2 hours incubation
Description: (§1) All compounds or DMSO (dimethyl sulphoxide) for the ERK2 Mass Spectrometry and A375 phospho-p90RSK assays were dispensed from source plates containing compounds at 10 mM in 100% (v/v) DMSO or 100% DMSO, directly into assay plates using an Echo 555 Acoustic dispenser (Labcyte Inc™). Depending on the assay, two separate plate preparations were followed. In Workflow A, 10 mM compound stocks were diluted 1:100 using a fixed-tip 96-head Agilent VPrep liquid handler (Agilent Technologies, Santa Clara, Calif.) to give four intermediate dilutions (10 mM, 100 μM, 1 μM, 10 nM). In Workflow B, 10 mM compound stocks were diluted 1:10 using a Tecan Freedom Evo (Tecan Group Ltd., Switzerland), and then 1:100 using the Echo 555 and Labcyte LX to produce three intermediate dilutions across three Labcyte qualified source plates (1 mM, 10 μM, 100 nM). These intermediate dilution plates were then used by the Echo 555 to generate final assay-ready compound plates with a 12 point dose range (10, 3, 1, 0.25, 0.1, 0.03, 0.01, 0.0025, 0.001, 0.0003, 0.0001, 0.0000125 μM) in order to calculate compound IC50s, with a total DMSO concentration in the assay of 1%. For the ERK2 Mass Spectrometry assay Workflow B was used. For the A375 phospho-p90RSK cell assay, the intermediate 1:100 dilution plate described in Workflow A was used by the Echo to dispense compounds and DMSO directly into the cell plates with a 12 point dose range (30, 10, 3.125, 1.25, 0.3, 0.1, 0.03125, 0.0125, 0.003, 0.001, 0.0003125, 0.00003 μM) in order to calculate compound IC50's, with a total DMSO concentration in the assay of 0.3%.
A375 Phospho-p90RSK Cellular Assay
A375 cells were cultured in cell media composed of DMEM (Dulbecco's modified Eagle's medium), 10% (v/v) Foetal Calf Serum and 1% (v/v) L-Glutamine. After harvesting, cells were dispensed into black, 384-well Costar plates (#3712, Corning) to give 2400 cells per well in a total volume of 40 μl cell media, and were incubated overnight at 37° C., 90% relative humidity and 5% CO2 in a rotating incubator. Test compounds and reference controls were dosed directly into the cell plates using a Labcyte Echo 555 acoustic dispenser. The cell plates were then incubated for 2 hours at 37° C. before being fixed by the addition of 20 μl 12% formaldehyde in PBS/A (4% final concentration), followed by a 20 minute room temperature incubation, and then a 2× wash with 150 μl PBS/A (phosphate buffered saline containing albumin) using a BioTek ELx405 platewasher. Cells were permeabilised with 20 μl 0.1% Triton X-100 in PBS/A for 20 minutes at room temperature, and then washed 1× with 100 μl PBS/A. Primary phospho-p90RSK (Thr359) (D1E9) rabbit monoclonal antibody (#8753, Cell Signaling Technology) was diluted 1:1000 in assay buffer (0.05% (v/v) Tween, 5% (v/v) Foetal Calf Serum, in PBS/A), 20 μl added per well, and plates were incubated at 4° C. overnight. Cell plates were washed 2× with 200 μl PBS/T (phosphate buffered saline containing Tween-20), then 20 μl 1:500 dilution in assay buffer of Alexa Fluor® 647 goat anti-rabbit IgG secondary antibody (#A31573, Molecular Probes, Life Technologies), with a 1:5000 dilution of Hoechst 33342, was added per well. Following a 90 minute incubation at room temperature, plates were washed 2× with 200 μl PBS/T, and 40 μl PBS/A was added per well. Stained cell plates were covered with black lid seals, and then read on a Cellomics ArrayScan™ VTI imaging platform (Thermo Scientific), using an XF53 filter with 10× objective, with a LED light source set-up to analyse nuclear staining with Hoechst 33342 (405 nm) and secondary antibody staining of phospho-p90RSK (647 nm). Data was analysed and IC50's were calculated using Genedata Screener® software.

A549 xenograft = assay: Tumour growth inhibition in A549 xenograft model; assay type: in vivo, mice; settings: selumetinib 25 mg/kg BiD or Example 18a 25 mg/kg QD, peroral, continuously for 3 weeks, relative to vehicle
Description: A549 is a human non small cell lung cancer line carrying an oncogenic mutation in the KRAS gene (G12S). Female nude mice (Harlan, UK) were implanted subcutaneously (s.c.) on the left flank, with 5×10^6 A549 cells (ATCC) per mouse.
Tumour growth was monitored by twice weekly calliper measurement and volumes calculated using elliptical formula (pi/6×width×width×length). Once tumours had reached a volume of ˜200-300 mm^3 animals were randomised into groups of 7-11 and were treated with a continuous combination schedule of selumetinib (ARRY-142886) 25 mg/kg BiD and Example 18a 25 mg/kg QD (four hours after first selumetinib dose), both were dosed by peroral route. Tumour volumes were measured twice weekly after dosing commenced.
Selumetinib was formulated in HPMC/Tween (0.5% Methocel [hydroxypropyl methocellulose]/0.1% Polysorbate 80), the suspension was stirred over night. Example 18a was formulated in 10% DMSO, 90% of a 40% kleptose solution (Kleptose is sourced from Roquette—Pharma [Trademarked] Hydroxypropyl betacyclodextrin—suitable for in-vivo use and formulations).
Studies were performed in the A549 xenograft model. Selumetinib was dosed twice daily (BiD) 8 hours apart and Example 18a was dosed once daily (QD) 4 hours after the first selumetinib dose. Both compounds were dosed continuously for 3 weeks. Both vehicles were dosed in the vehicle group.

ERK2 = biological target: T1, ERK2 (Homo sapiens, UniProt P28482); assay: ERK2 Rapidfire Mass Spectrometry Inhibition of Catalysis Assay; assay type: biochemical; settings: 1.2 nM ERK2, 16 μM Erktide, 120 μM ATP (measured Km), 15 minute pre-incubation; read-out: ERK2 Mass Spectrometry Enzyme IC50
T1 construct: made in house
T1 sequence (P28482 whole entry): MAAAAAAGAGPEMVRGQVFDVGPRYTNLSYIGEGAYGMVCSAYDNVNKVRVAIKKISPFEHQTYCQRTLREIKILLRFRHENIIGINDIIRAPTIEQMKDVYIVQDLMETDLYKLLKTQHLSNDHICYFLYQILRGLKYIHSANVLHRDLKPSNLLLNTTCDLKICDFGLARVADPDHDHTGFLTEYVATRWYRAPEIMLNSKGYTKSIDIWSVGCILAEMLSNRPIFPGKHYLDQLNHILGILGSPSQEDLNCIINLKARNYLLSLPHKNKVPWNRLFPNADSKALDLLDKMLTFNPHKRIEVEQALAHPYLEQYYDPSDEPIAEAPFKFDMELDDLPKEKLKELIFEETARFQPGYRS
Description: as §1
ERK2 Rapidfire Mass Spectrometry Inhibition of Catalysis Assay
MEK U911-activated ERK2 protein was expressed and purified in-house. Enzyme and substrate solutions were made up in assay buffer consisting of 50 mM Tris (pH 7.5), 10 mM MgCl2, 0.1 mM EGTA (ethylene glycol tetraacetic acid), 10 mM DTT (dithiothreitol) and 0.01% (v/v) CHAPS (3-[(3-Cholamidopropyl)dimethylammonio]-1-propanesulfonate). 1.2 nM ERK2 protein was prepared in assay buffer and 10 μl was dispensed into each well of a polypropylene, 384-well plate (#781201, Greiner) containing test and reference control compounds. […] The reaction was allowed to progress for 20 minutes at room temperature before being quenched by the addition of 80 al 1% (v/v) formic acid. The assay plates were then run on the RapidFire Mass Spectrometry platform (Agilent) to measure substrate (unphosphorylated Erktide) and product (phosphorylated Erktide) levels. Data was analysed and IC50's (half maximal inhibitory concentration) were calculated using Genedata Screener® software.

`COC[C@H]1Cn2cc(-c3nc(Nc4ccnn4C)ncc3C)nc2C(=O)N1Cc1ccc(F)c(F)c1` [Example 18a, (R)-7-(3,4-Difluorobenzyl)-6-(methoxymethyl)-2-(5-methyl-2-((1-methyl-1H-pyrazol-5-yl)amino)pyrimidin-4-yl)-6,7-dihydroimidazo[1,2-a]pyrazin-8(5H)-one Ethanesulfonic acid adduct Form 1] was tested, and the IC50 [1] was 7.4 nM, the “tumour growth, single agent” value (A549 xenograft) was “reduced tumour growth relative to vehicle only control” and the IC50 (ERK2) was 0.6 nM.
`Cc1cnc(Nc2ccnn2C)nc1-c1cn2c(n1)C(=O)N(Cc1cccc(C(F)F)n1)[C@H](C)C2` [Example 37, (R)-7-((6-(Difluoromethyl)pyridin-2-yl)methyl)-6-methyl-2-(5-methyl-2-((1-methyl-1H-pyrazol-5-yl)amino)pyrimidin-4-yl)-6,7-dihydroimidazo[1,2-a]pyrazin-8(5H)-one] gave an IC50 ([1]; Homo sapiens, A-375) of 64 nM and an IC50 (ERK2) of 0.7 nM.
`COC[C@H]1Cn2cc(-c3nc(Nc4ccnn4C)ncc3C)nc2C(=O)N1Cc1cccc(C(F)F)c1` [Example 38, (R)-7-(3-(Difluoromethyl)benzyl)-6-(methoxymethyl)-2-(5-methyl-2-((1-methyl-1H-pyrazol-5-yl)amino)pyrimidin-4-yl)-6,7-dihydroimidazo[1,2-a]pyrazin-8(5H)-one] gave an IC50 ([1]; Homo sapiens, A-375) of 8 nM and an IC50 (ERK2) of 0.7 nM.
`COC[C@H]1Cn2cc(-c3nc(Nc4ccnn4C)ncc3C)nc2C(=O)N1Cc1cccc(C(F)(F)F)n1` [Example 39, (R)-6-(Methoxymethyl)-2-(5-methyl-2-((1-methyl-1H-pyrazol-5-yl)amino)pyrimidin-4-yl)-7-((6-(trifluoromethyl)pyridin-2-yl)methyl)-6,7-dihydroimidazo[1,2-a]pyrazin-8(5H)-one] was tested, and the IC50 ([1]; Homo sapiens, A-375) was 70 nM and the IC50 (ERK2) was 1.8 nM.
In the case of `COC[C@H]1Cn2cc(-c3nc(Nc4ccnn4C)ncc3C)nc2C(=O)N1Cc1cc(F)cc(F)c1` [Example 40, (R)-7-(3,5-difluorobenzyl)-6-(methoxymethyl)-2-(5-methyl-2-((1-methyl-1H-pyrazol-5-yl)amino)pyrimidin-4-yl)-6,7-dihydroimidazo[1,2-a]pyrazin-8(5H)-one], the IC50 ([1]; Homo sapiens, A-375) is reported as 32 nM and the IC50 (ERK2) is reported as 1.1 nM.
In the case of `COC[C@H]1Cn2cc(-c3nc(Nc4ccnn4C)ncc3C)nc2C(=O)N1Cc1cccc(OC)c1` [Example 41, (R)-7-(3-Methoxybenzyl)-6-(methoxymethyl)-2-(5-methyl-2-((1-methyl-1H-pyrazol-5-yl)amino)pyrimidin-4-yl)-6,7-dihydroimidazo[1,2-a]pyrazin-8(5H)-one], the IC50 ([1]; Homo sapiens, A-375) is reported as 130 nM and the IC50 (ERK2) is reported as 1.5 nM.
